In patent publication US11541055B2, “Inhibitors of human immunodeficiency virus replication” (ViiV Healthcare UK (No. 5) LIMITED, priority 2018, dated 2023):

What was measured:
[1] = system: recombinant NL4-3 virus (Renilla luciferase) in MT-2 cells; experiment: HIV cell culture assay (antiviral activity, luciferase readout); format: cell-based; settings: Renilla, NL43
In short: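 MT-2 cells were infected with recombinant NL4-3 virus carrying Renilla luciferase in place of part of nef. Cells were cultured 4–5 days with serially diluted compound, and luciferase was measured with a live-cell substrate. EC50 was calculated from the median effect equation.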

[2] = Compound cytotoxicity, XTT-based colorimetric assay; format: cell-based; settings: human; uninfected MT2 cells, day 4, XTT
In short: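 Run under the antiviral-assay protocol but without virus. Viability was read on day 4 and CC50 values were derived from the readout.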

Row | SMILES | EC50 [1] [nM] | CC50 at 4 days [2] [nM]
1 | Cc1ccnnc1-c1ccc2c(=O)n(-c3ccc(Cl)c4c(NS(C)(=O)=O)nn(C)c34)c([C@H](Cc3cc(F)cc(F)c3)NC(=O)Cn3nc(C(F)F)c4c3C(F)(F)[C@@H]3C[C@H]43)nc2c1 (atropisomer, axis not shown; (P)) [Example 51, N—((S)-1-((3P)-3-(4-chloro-1-methyl-3-(methylsulfonamido)-1H-indazol-7-yl)-7-(4-methylpyridazin-3-yl)-4-oxo-3,4-dihydroquinazolin-2-yl)-2-(3,5-difluorophenyl)ethyl)-2-((3bS,4aR)-3-(difluoromethyl)-5,5-difluoro-3b,4,4a,5-tetrahydro-1H-cyclopropa[3,4]cyclopenta[1,2-c]pyrazol-1-yl)acetamide] | 0.14 | > 500
2 | Cc1cc(C)c(C(F)(F)F)c(-c2ccc3c(=O)n(-c4ccc(Cl)c5c(NS(C)(=O)=O)nn(C)c45)c([C@H](Cc4cc(F)cc(F)c4)NC(=O)Cn4nc(C(F)F)c5c4C(F)(F)[C@@H]4C[C@H]54)nc3c2)n1 (atropisomer, axis not shown; (P)) [Example 52, N—((S)-1-((3P)-3-(4-chloro-1-methyl-3-(methylsulfonamido)-1H-indazol-7-yl)-7-(4,6-dimethyl-3-(trifluoromethyl)pyridin-2-yl)-4-oxo-3,4-dihydroquinazolin-2-yl)-2-(3,5-difluorophenyl)ethyl)-2-((3bS,4aR)-3-(difluoromethyl)-5,5-difluoro-3b,4,4a,5-tetrahydro-1H-cyclopropa[3,4]cyclopenta[1,2-c]pyrazol-1-yl)acetamide] | 0.48 | > 500
3 | COc1cc(C(F)(F)F)nc(-c2ccc3c(=O)n(-c4ccc(Cl)c5c(NS(C)(=O)=O)nn(C)c45)c([C@H](Cc4cc(F)cc(F)c4)NC(=O)Cn4nc(C(F)F)c5c4C(F)(F)[C@@H]4C[C@H]54)nc3c2)n1 (atropisomer, axis not shown; (P)) [Example 54, N—((S)-1-((3P)-3-(4-chloro-1-methyl-3-(methylsulfonamido)-1H-indazol-7-yl)-7-(4-methoxy-6-(trifluoromethyl)pyrimidin-2-yl)-4-oxo-3,4-dihydroquinazolin-2-yl)-2-(3,5-difluorophenyl)ethyl)-2-((3bS,4aR)-3-(difluoromethyl)-5,5-difluoro-3b,4,4a,5-tetrahydro-1H-cyclopropa[3,4]cyclopenta[1,2-c]pyrazol-1-yl)acetamide] | 0.31 | > 500
4 | Cc1nnc(-c2ccc3c(=O)n(-c4ccc(Cl)c5c(NS(C)(=O)=O)nn(C)c45)c([C@H](Cc4cc(F)cc(F)c4)NC(=O)Cn4nc(C(F)F)c5c4C(F)(F)[C@@H]4C[C@H]54)nc3c2)nc1C (atropisomer, axis not shown; (P)) [Example 55, N—((S)-1-((3P)-3-(4-chloro-1-methyl-3-(methylsulfonamido)-1H-indazol-7-yl)-7-(5,6-dimethyl-1,2,4-triazin-3-yl)-4-oxo-3,4-dihydroquinazolin-2-yl)-2-(3,5-difluorophenyl)ethyl)-2-((3bS,4aR)-3-(difluoromethyl)-5,5-difluoro-3b,4,4a,5-tetrahydro-1H-cyclopropa[3,4]cyclopenta[1,2-c]pyrazol-1-yl)acetamide] | 0.032 | > 500
5 | Cn1nc(NS(C)(=O)=O)c2c(Cl)ccc(-n3c([C@H](Cc4cc(F)cc(F)c4)NC(=O)Cn4nc(C(F)F)c5c4C(F)(F)[C@@H]4C[C@H]54)nc4cc(-c5nccc(C(F)F)n5)ccc4c3=O)c21 (atropisomer, axis not shown; (P)) [Example 56, N—((S)-1-((3P)-3-(4-chloro-1-methyl-3-(methylsulfonamido)-1H-indazol-7-yl)-7-(4-(difluoromethyl)pyrimidin-2-yl)-4-oxo-3,4-dihydroquinazolin-2-yl)-2-(3,5-difluorophenyl)ethyl)-2-((3bS,4aR)-3-(difluoromethyl)-5,5-difluoro-3b,4,4a,5-tetrahydro-1H-cyclopropa[3,4]cyclopenta[1,2-c]pyrazol-1-yl)acetamide] | 0.056 | > 500
6 | COc1cc(C)nc(-c2ccc3c(=O)n(-c4ccc(Cl)c5c(NS(C)(=O)=O)nn(C)c45)c([C@H](Cc4cc(F)cc(F)c4)NC(=O)Cn4nc(C(F)F)c5c4C(F)(F)[C@@H]4C[C@H]54)nc3c2)c1 (atropisomer, axis not shown; (P)) [Example 57, N—((S)-1-((3P)-3-(4-chloro-1-methyl-3-(methylsulfonamido)-1H-indazol-7-yl)-7-(4-methoxy-6-methylpyridin-2-yl)-4-oxo-3,4-dihydroquinazolin-2-yl)-2-(3,5-difluorophenyl)ethyl)-2-((3bS,4aR)-3-(difluoromethyl)-5,5-difluoro-3b,4,4a,5-tetrahydro-1H-cyclopropa[3,4]cyclopenta[1,2-c]pyrazol-1-yl)acetamide] | 0.15 | > 500
7 | Cn1nc(NS(C)(=O)=O)c2c(Cl)ccc(-n3c([C@H](Cc4cc(F)cc(F)c4)NC(=O)Cn4nc(C(F)F)c5c4C(F)(F)[C@@H]4C[C@H]54)nc4cc(-c5cc(C(F)(F)F)cc(C(F)(F)F)n5)ccc4c3=O)c21 (atropisomer, axis not shown; (P)) [Example 58, N—((S)-1-(7-(4,6-bis(trifluoromethyl)pyridin-2-yl)-(3P)-3-(4-chloro-1-methyl-3-(methylsulfonamido)-1H-indazol-7-yl)-4-oxo-3,4-dihydroquinazolin-2-yl)-2-(3,5-difluorophenyl)ethyl)-2-((3bS,4aR)-3-(difluoromethyl)-5,5-difluoro-3b,4,4a,5-tetrahydro-1H-cyclopropa[3,4]cyclopenta[1,2-c]pyrazol-1-yl)acetamide] | 0.95 | > 500
8 | Cn1nc(NS(C)(=O)=O)c2c(Cl)ccc(-n3c([C@H](Cc4cc(F)cc(F)c4)NC(=O)Cn4nc(C(F)F)c5c4C(F)(F)[C@@H]4C[C@H]54)nc4cc(-c5cccc(C(F)(F)F)n5)ccc4c3=O)c21 (atropisomer, axis not shown; (P)) [Example 59, N—((S)-1-((3P)-3-(4-chloro-1-methyl-3-(methylsulfonamido)-1H-indazol-7-yl)-4-oxo-7-(6-(trifluoromethyl)pyridin-2-yl)-3,4-dihydroquinazolin-2-yl)-2-(3,5-difluorophenyl)ethyl)-2-((3bS,4aR)-3-(difluoromethyl)-5,5-difluoro-3b,4,4a,5-tetrahydro-1H-cyclopropa[3,4]cyclopenta[1,2-c]pyrazol-1-yl)acetamide] | 0.12 | > 500
9 | CCc1ncncc1-c1ccc2c(=O)n(-c3ccc(Cl)c4c(NS(C)(=O)=O)nn(C)c34)c([C@H](Cc3cc(F)cc(F)c3)NC(=O)Cn3nc(C(F)F)c4c3C(F)(F)[C@@H]3C[C@H]43)nc2c1 (atropisomer, axis not shown; (P)) [Example 60, N—((S)-1-((3P)-3-(4-chloro-1-methyl-3-(methylsulfonamido)-1H-indazol-7-yl)-7-(4-ethylpyrimidin-5-yl)-4-oxo-3,4-dihydroquinazolin-2-yl)-2-(3,5-difluorophenyl)ethyl)-2-((3bS,4aR)-3-(difluoromethyl)-5,5-difluoro-3b,4,4a,5-tetrahydro-1H-cyclopropa[3,4]cyclopenta[1,2-c]pyrazol-1-yl)acetamide] | 0.077 | > 500
10 | Cn1nc(NS(C)(=O)=O)c2c(Cl)ccc(-n3c([C@H](Cc4cc(F)cc(F)c4)NC(=O)Cn4nc(C(F)F)c5c4C(F)(F)[C@@H]4C[C@H]54)nc4cc(-c5nccnc5C5CC5)ccc4c3=O)c21 (atropisomer, axis not shown; (P)) [Example 61, N—((S)-1-((3P)-3-(4-chloro-1-methyl-3-(methylsulfonamido)-1H-indazol-7-yl)-7-(3-cyclopropylpyrazin-2-yl)-4-oxo-3,4-dihydroquinazolin-2-yl)-2-(3,5-difluorophenyl)ethyl)-2-((3bS,4aR)-3-(difluoromethyl)-5,5-difluoro-3b,4,4a,5-tetrahydro-1H-cyclopropa[3,4]cyclopenta[1,2-c]pyrazol-1-yl)acetamide] | 0.16 | > 500
11 | CCc1cc(-c2ccc3c(=O)n(-c4ccc(Cl)c5c(NS(C)(=O)=O)nn(C)c45)c([C@H](Cc4cc(F)cc(F)c4)NC(=O)Cn4nc(C(F)F)c5c4C(F)(F)[C@@H]4C[C@H]54)nc3c2)nc(C)n1 (atropisomer, axis not shown; (P)) [Example 62, N—((S)-1-((3P)-3-(4-chloro-1-methyl-3-(methylsulfonamido)-1H-indazol-7-yl)-7-(6-ethyl-2-methylpyrimidin-4-yl)-4-oxo-3,4-dihydroquinazolin-2-yl)-2-(3,5-difluorophenyl)ethyl)-2-((3bS,4aR)-3-(difluoromethyl)-5,5-difluoro-3b,4,4a,5-tetrahydro-1H-cyclopropa[3,4]cyclopenta[1,2-c]pyrazol-1-yl)acetamide] | 0.11 | > 500
12 | Cc1nc(-c2ccc3c(=O)n(-c4ccc(Cl)c5c(NS(C)(=O)=O)nn(C)c45)c([C@H](Cc4cc(F)cc(F)c4)NC(=O)Cn4nc(C(F)F)c5c4C(F)(F)[C@@H]4C[C@H]54)nc3c2)cc(C(F)(F)F)n1 (atropisomer, axis not shown; (P)) [Example 63, N—((S)-1-((3P)-3-(4-chloro-1-methyl-3-(methylsulfonamido)-1H-indazol-7-yl)-7-(2-methyl-6-(trifluoromethyl)pyrimidin-4-yl)-4-oxo-3,4-dihydroquinazolin-2-yl)-2-(3,5-difluorophenyl)ethyl)-2-((3bS,4aR)-3-(difluoromethyl)-5,5-difluoro-3b,4,4a,5-tetrahydro-1H-cyclopropa[3,4]cyclopenta[1,2-c]pyrazol-1-yl)acetamide] | 0.33 | > 500
